# Data reported in publication PMC10872723 (Journal of medicinal chemistry, 2023).
# Read-outs that look alike come from different tables or passages of the source.
# What was measured:
# [1] = target: T1, WDR5 (Homo sapiens, UniProt P61964); details: MIA PaCa-2 cells
# [2] = target: IKZF1 (Homo sapiens, UniProt Q13422); assay: Western blotting of IKZF1 protein levels in MV4; details: MV4;11 cells
# [3] = target: T1, WDR5; assay: Western blotting of WDR5 protein levels in MV4; details: MV4;11 cells
# [4] = target: LIMD1 (Homo sapiens, UniProt Q9UGP4); assay: Western blotting of LIMD1 protein levels in MV4; details: MV4;11 cells, 0.1 and 0.5 μM, 18 h (Figure 5A)
# Sequence of LIMD1 (Q9UGP4 whole entry): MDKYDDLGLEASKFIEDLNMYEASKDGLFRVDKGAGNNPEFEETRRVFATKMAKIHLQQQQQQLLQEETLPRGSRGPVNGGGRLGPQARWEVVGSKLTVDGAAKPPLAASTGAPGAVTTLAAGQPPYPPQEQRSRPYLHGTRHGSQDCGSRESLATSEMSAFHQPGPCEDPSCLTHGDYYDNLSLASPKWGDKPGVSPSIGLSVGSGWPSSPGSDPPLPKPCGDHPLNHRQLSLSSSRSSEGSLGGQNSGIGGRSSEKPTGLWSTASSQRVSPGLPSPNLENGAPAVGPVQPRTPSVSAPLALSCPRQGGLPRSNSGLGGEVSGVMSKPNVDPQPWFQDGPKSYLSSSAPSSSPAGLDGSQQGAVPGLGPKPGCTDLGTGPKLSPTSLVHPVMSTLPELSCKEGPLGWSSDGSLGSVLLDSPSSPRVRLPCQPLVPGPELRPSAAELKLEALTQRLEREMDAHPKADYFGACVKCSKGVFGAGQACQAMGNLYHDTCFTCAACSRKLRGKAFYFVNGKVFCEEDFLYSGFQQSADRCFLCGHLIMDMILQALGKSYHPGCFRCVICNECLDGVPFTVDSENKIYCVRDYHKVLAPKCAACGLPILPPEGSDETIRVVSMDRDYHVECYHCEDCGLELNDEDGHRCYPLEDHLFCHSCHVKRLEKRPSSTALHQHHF
# [5] = target: WDR5 K296R (Homo sapiens, UniProt P61964, K296R); assay: Immunoblot of WDR5 K296R mutant degradation in HEK293T cells; format: cell-based; details: HEK293T cells overexpressing K296R (Dox), indicated concentrations, 3 days
# [6] = target: VCB E3 ligase complex (Homo sapiens, UniProt P40337); assay: Isothermal titration calorimetry; format: binding
# Sequence of VCB E3 ligase complex (Q15369 whole entry): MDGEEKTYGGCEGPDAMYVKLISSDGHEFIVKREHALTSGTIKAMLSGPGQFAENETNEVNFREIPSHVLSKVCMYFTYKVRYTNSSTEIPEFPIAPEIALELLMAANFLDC
# Sequence of VCB E3 ligase complex (Q15370 1-104, further chain): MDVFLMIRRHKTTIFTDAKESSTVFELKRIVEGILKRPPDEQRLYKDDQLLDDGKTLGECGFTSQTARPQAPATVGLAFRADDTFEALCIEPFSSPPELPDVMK
# Sequence of VCB E3 ligase complex (P40337 54-213): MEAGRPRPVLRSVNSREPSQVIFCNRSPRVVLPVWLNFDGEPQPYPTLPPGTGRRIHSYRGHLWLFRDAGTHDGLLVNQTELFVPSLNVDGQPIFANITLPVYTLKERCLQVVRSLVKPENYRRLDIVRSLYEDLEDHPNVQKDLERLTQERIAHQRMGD
# [7] = target: T1, WDR5; assay: Isothermal titration calorimetry; format: binding
# [8] = target: T1, WDR5; assay: Western blotting of WDR5 degradation in PDAC cell lines; format: cell-based; details: 18 h; for WDR5 degradation (WB): MIA PaCa-2, BxPC-3, HPAF-II, Panc10.05 and PANC-1 cells, indicated concentrations
# [9] = tested on: PDAC cell lines including MIA PaCa-2, BxPC-3, HPAF-II, Panc10.05, and PANC-1; assay: Antiproliferative activity in PDAC cell lines; format: cell-based, human
# [10] = tested on: PDAC cell lines including MIA PaCa-2, BxPC-3, HPAF-II, Panc10.05, and PANC-1; details: previously reported; cited from earlier work
# [11] = tested on: WDR5-11–VCB ternary complex; assay: ITC binding cooperativity, VCB into WDR5-11 binary complex; set-up: species or system human; details: VCB binding to the WDR5-11 binary complex vs VCB into 11
# [12] = tested on: MIA PaCa-2 cells; assay: TMT MS-based global proteomic study in MIA PaCa-2 cells; format: cell-based, human; details: 1.5 μM, 2 h, 4040 quantified proteins, cutoff P value less than 0.01, Log2 fold change greater than 0.5
# [13] = Mouse PK study; details: 75 mg/kg
# [14] = indicated concentrations, 18 h (Figure 5C)
# [15] = indicated concentrations, 18 h (Figure 5B)
# [16] = 0.1 and 0.5 μM, 18 h (Figure 5A)
# Sequence of IKZF1 (Q13422 whole entry): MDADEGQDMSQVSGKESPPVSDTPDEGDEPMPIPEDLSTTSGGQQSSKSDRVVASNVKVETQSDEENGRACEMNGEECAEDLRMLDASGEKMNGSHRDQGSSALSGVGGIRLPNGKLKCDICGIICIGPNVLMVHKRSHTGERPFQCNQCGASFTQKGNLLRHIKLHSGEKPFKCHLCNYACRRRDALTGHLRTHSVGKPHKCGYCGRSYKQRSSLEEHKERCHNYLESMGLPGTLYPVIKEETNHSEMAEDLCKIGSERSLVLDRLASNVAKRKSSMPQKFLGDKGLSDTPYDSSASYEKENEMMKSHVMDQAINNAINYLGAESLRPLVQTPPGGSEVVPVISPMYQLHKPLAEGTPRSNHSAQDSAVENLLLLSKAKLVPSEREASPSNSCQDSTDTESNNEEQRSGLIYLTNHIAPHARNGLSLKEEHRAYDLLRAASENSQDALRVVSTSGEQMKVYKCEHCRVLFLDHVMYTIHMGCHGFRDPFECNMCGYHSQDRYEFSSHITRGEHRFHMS
smiles,measurement,setting,value
"C[C@@H]1CN(c2ccc(-c3cc(C(=O)NCCCCCCCNC(=O)COc4cccc5c4C(=O)N(C4CCC(=O)NC4=O)C5=O)ccc3F)cc2NC(=O)c2c[nH]c(=O)cc2C(F)(F)F)C[C@H](C)N1C (stereo partly drawn) [Compound 25, N-(5′-((7-(2-((2-(2,6-Dioxopiperidin-3-yl)-1,3-dioxoisoindolin-4-yl)oxy)acetamido)heptyl)carbamoyl)-2′-fluoro-4-((3S,5R)-3,4,5-trimethylpiperazin-1-yl)-[1,1′-biphenyl]-3-yl)-6-oxo-4-(trifluoromethyl)-1,6-dihydropyridine-3-carboxamide]",WDR5 protein levels (WB),[1]; [14],effectively reduced the cellular WDR5 protein levels
same,IKZF1 protein levels (WB),[2]; [15],had no effect on IKZF1 protein levels
"CN1CCN(c2ccc(-c3cccc(CN4CCN(CCNC(=O)CCCCNC(=O)COc5cccc6c5C(=O)N(C5CCC(=O)N(C)C5=O)C6=O)CC4)c3)cc2NC(=O)c2c[nH]c(=O)cc2C(F)(F)F)CC1 (centres unmarked) [Compound 24, N-(3′-((4-(2-(5-(2-((2-(1-Methyl-2,6-dioxopiperidin-3-yl)-1,3-dioxoisoindolin-4-yl)oxy)acetamido)pentanamido)ethyl)piperazin-1-yl)methyl)-4-(4-methylpiperazin-1-yl)-[1,1′-biphenyl]-3-yl)-6-oxo-4-(trifluoromethyl)-1,6-dihydropyridine-3-carboxamide]",WDR5 protein levels (WB),[3]; [16],"did not have an effect on the protein levels of WDR5, IKZF1, and LIMD1"
same,IKZF1 protein levels (WB),[2]; [16],"did not have an effect on the protein levels of WDR5, IKZF1, and LIMD1"
same,LIMD1 protein levels (WB),[4],"did not have an effect on the protein levels of WDR5, IKZF1, and LIMD1"
Cc1ncsc1-c1ccc([C@H](C)NC(=O)[C@@H]2C[C@@H](O)CN2C(=O)[C@@H](NC(=O)CNC(=O)c2ccc(F)c(-c3ccc(N4C[C@@H](C)N(C)[C@@H](C)C4)c(NC(=O)c4c[nH]c(=O)cc4C(F)(F)F)c3)c2)C(C)(C)C)cc1 [MS67],Degradation of WDR5 K296R mutant,[5],resistant to the MS67 treatment
"Cc1ncsc1-c1ccc(CNC(=O)[C@H]2C[C@H](O)CN2C(=O)[C@@H](NC(=O)CNC(=O)c2ccc(F)c(-c3ccc(N4C[C@@H](C)N(C)[C@@H](C)C4)c(NC(=O)c4c[nH]c(=O)cc4C(F)(F)F)c3)c2)C(C)(C)C)cc1 [Compound 27, N-(2′-Fluoro-5′-((2-(((S)-1-((2R,4S)-4-hydroxy-2-((4-(4-methylthiazol-5-yl)benzyl)carbamoyl)pyrrolidin-1-yl)-3,3-dimethyl-1-oxobutan-2-yl)amino)-2-oxoethyl)carbamoyl)-4-((3S,5R)-3,4,5-trimethylpiperazin-1-yl)-[1,1′-biphenyl]-3-yl)-6-oxo-4-(trifluoromethyl)-1,6-dihydropyridine-3-carboxamide]",KD to VCB (ITC),"[6]; mean ± SD, three independent experiments",did not display any noticeable binding to VCB
same,Kd,[7],0.106 ± 0.043 µM
same,WDR5 degradation (WB),[8],unable to degrade WDR5 in all tested pancreatic cancer cells
same,Antiproliferative activity,"[9]; PDAC cells, 6 day treatment",lack of antiproliferative activity
CN1CCN(c2ccc(-c3cccc(CN4CCOCC4)c3)cc2NC(=O)c2c[nH]c(=O)cc2C(F)(F)F)CC1 [OICR-9429],Antiproliferative activity,[10],lack of antiproliferative activity
"C[C@@H]1CN(c2ccc(-c3cc(C(=O)NCCCCCCCNC(=O)COc4cccc5c4C(=O)N(C4CCC(=O)N(C)C4=O)C5=O)ccc3F)cc2NC(=O)c2c[nH]c(=O)cc2C(F)(F)F)C[C@H](C)N1C (stereo partly drawn) [Compound 26, N-(2′-Fluoro-5′-((7-(2-((2-(1-methyl-2,6-dioxopiperidin-3-yl)-1,3-dioxoisoindolin-4-yl)oxy)acetamido)heptyl)carbamoyl)-4-((3S,5R)-3,4,5-trimethylpiperazin-1-yl)-[1,1′-biphenyl]-3-yl)-6-oxo-4-(trifluoromethyl)-1,6-dihydropyridine-3-carboxamide]",WDR5 protein levels (WB),"[3]; indicated concentrations, 18 h (Figures 5B and S1)",did not affect the protein levels of WDR5 and IKZF1
same,IKZF1 protein levels (WB),[2]; [15],did not affect the protein levels of WDR5 and IKZF1
"CN1CCN(c2ccc(-c3cccc(CN4CCN(CCNC(=O)CCCCCCCNC(=O)COc5cccc6c5C(=O)N(C5CCC(=O)N(C)C5=O)C6=O)CC4)c3)cc2NC(=O)c2c[nH]c(=O)cc2C(F)(F)F)CC1 (centres unmarked) [Compound 22, N-(3′-((4-(2-(8-(2-((2-(1-Methyl-2,6-dioxopiperidin-3-yl)-1,3-dioxoisoindolin-4-yl)oxy)acetamido)octanamido)ethyl)piperazin-1-yl)methyl)-4-(4-methylpiperazin-1-yl)-[1,1′-biphenyl]-3-yl)-6-oxo-4-(trifluoromethyl)-1,6-dihydropyridine-3-carboxamide]",WDR5 protein levels (WB),[3]; [16],"did not have an effect on the protein levels of WDR5, IKZF1, and LIMD1"
same,IKZF1 protein levels (WB),[2]; [16],"did not have an effect on the protein levels of WDR5, IKZF1, and LIMD1"
same,LIMD1 protein levels (WB),[4],"did not have an effect on the protein levels of WDR5, IKZF1, and LIMD1"
"Cc1ncsc1-c1ccc(CNC(=O)[C@@H]2C[C@@H](O)CN2C(=O)[C@@H](NC(=O)CNC(=O)c2ccc(F)c(-c3ccc(N4C[C@@H](C)N(C)[C@@H](C)C4)c(NC(=O)c4c[nH]c(=O)cc4C(F)(F)F)c3)c2)C(C)(C)C)cc1 [Compound 11, N-(2′-Fluoro-5′-((2-(((S)-1-((2S,4R)-4-hydroxy-2-((4-(4-methylthiazol-5-yl)benzyl)carbamoyl)pyrrolidin-1-yl)-3,3-dimethyl-1-oxobutan-2-yl)amino)-2-oxoethyl)carbamoyl)-4-((3S,5R)-3,4,5-trimethylpiperazin-1-yl)-[1,1′-biphenyl]-3-yl)-6-oxo-4-(trifluoromethyl)-1,6-dihydropyridine-3-carboxamide]",Kd,[6],0.534 ± 0.048 µM
same,Binding cooperativity α = KD (binary)/KD (ternary),[11],2.30
same,WDR5 degradation (WB),[8],induced WDR5 degradation in a concentration-dependent manner
same,Hook effect in WDR5 degradation,"[8]; PDAC cells, concentrations up to 50 μM",no “hook effect” observed
same,Proteome-wide degradation selectivity,[12],WDR5 is the only protein whose abundance was significantly decreased
same,GI50,"[9]; Homo sapiens, 144 h",4 to 32 µM
same,Tmax,"[13]; male, Swiss albino, mouse, plasma, ip",30 min
same,Clinical signs during the PK study,"[13]; mice, single IP injection",no clinical signs were observed
same,Plasma concentration maintained for the initial 4 h,"[13]; mice, single IP injection",around 1 μM
same,Plasma concentration maintained over 12 h,"[13]; mice, single IP injection",above 100 nM
same,Time at which maximal WDR5 degradation achieved,[1]; 0.1 μM,24 h
same,Time at which significant WDR5 reduction observed,[1]; 0.1 μM,2 h
same,WDR5 protein levels (WB verification for proteomics),"[1]; 1.5 μM, 2 h (Figure S5)",significantly reduced WDR5 protein levels
same,WDR5 protein levels (WB),"[1]; 0.1 and 0.5 μM, 18 h (Figure 3)",effectively decreased the WDR5 protein levels
"CN1CCN(c2ccc(-c3cccc(CN4CCN(CCNC(=O)CCCCNC(=O)COc5cccc6c5C(=O)N(C5CCC(=O)NC5=O)C6=O)CC4)c3)cc2NC(=O)c2c[nH]c(=O)cc2C(F)(F)F)CC1 (centres unmarked) [Compound 23, N-(3′-((4-(2-(5-(2-((2-(2,6-Dioxopiperidin-3-yl)-1,3-dioxoisoindolin-4-yl)oxy)acetamido)pentanamido)ethyl)piperazin-1-yl)methyl)-4-(4-methylpiperazin-1-yl)-[1,1′-biphenyl]-3-yl)-6-oxo-4-(trifluoromethyl)-1,6-dihydropyridine-3-carboxamide]",WDR5 protein levels (WB),[3]; [16],to a less extent effectively downregulated WRD5 protein levels
same,IKZF1 protein levels (WB),[2]; [16],completely ineffective in degrading neo-substrate IKZF1
same,LIMD1 protein levels (WB),[4],"completely ineffective in degrading neo-substrate IKZF1, and protein LIMD1"
"CN1CCN(c2ccc(-c3cccc(CN4CCN(CCNC(=O)CCCCCCCNC(=O)COc5cccc6c5C(=O)N(C5CCC(=O)NC5=O)C6=O)CC4)c3)cc2NC(=O)c2c[nH]c(=O)cc2C(F)(F)F)CC1 (centres unmarked) [Compound 21, N-(3′-((4-(2-(8-(2-((2-(2,6-Dioxopiperidin-3-yl)-1,3-dioxoisoindolin-4-yl)oxy)acetamido)octanamido)ethyl)piperazin-1-yl)methyl)4-(4-methylpiperazin-1-yl)-[1,1′-biphenyl]-3-yl)-6-oxo-4-(trifluoromethyl)-1,6-dihydropyridine-3-carboxamide]",Effectiveness in downregulating WDR5 protein levels relative to other degraders,[3]; [16],slightly more effective than MS40 and 23
same,WDR5 protein levels (WB),[3]; [16],effectively downregulated WRD5 protein levels
same,WDR5 protein levels (WB),[1]; [14],effectively reduced the cellular WDR5 protein levels
same,IKZF1 protein levels (WB),[2]; [16],completely ineffective in degrading neo-substrate IKZF1
same,LIMD1 protein levels (WB),[4],"completely ineffective in degrading neo-substrate IKZF1, and protein LIMD1"
